In US20130178475A1, “sGC STIMULATORS” (IRONWOOD PHARMACEUTICALS, INC., priority 2010, published 2013):

Target: T1, soluble guanylate cyclase (sGC) (Homo sapiens, UniProt Q02108+Q02153)
T1 construct: endogenously expressing soluble guanylate cyclase (sGC); endogenous in cells; host or cells: HEK293
T1 sequence (Q02153 1-619): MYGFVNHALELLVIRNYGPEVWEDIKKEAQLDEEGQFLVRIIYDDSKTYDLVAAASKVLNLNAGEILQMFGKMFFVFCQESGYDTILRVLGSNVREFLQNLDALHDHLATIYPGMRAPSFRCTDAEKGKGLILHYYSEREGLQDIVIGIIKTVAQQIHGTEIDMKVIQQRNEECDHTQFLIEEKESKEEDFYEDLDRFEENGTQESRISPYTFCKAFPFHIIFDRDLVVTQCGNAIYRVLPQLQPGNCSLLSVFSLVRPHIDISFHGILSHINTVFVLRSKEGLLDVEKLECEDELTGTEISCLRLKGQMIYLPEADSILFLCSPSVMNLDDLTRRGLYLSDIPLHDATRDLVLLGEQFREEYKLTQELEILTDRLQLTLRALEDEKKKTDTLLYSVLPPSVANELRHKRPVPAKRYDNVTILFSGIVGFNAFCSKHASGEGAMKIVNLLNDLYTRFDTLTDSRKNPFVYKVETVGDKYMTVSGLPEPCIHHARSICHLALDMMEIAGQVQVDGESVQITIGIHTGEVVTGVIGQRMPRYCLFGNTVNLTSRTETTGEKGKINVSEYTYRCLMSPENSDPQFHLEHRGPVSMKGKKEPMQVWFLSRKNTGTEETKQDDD
T1 sequence (Q02108 1-690): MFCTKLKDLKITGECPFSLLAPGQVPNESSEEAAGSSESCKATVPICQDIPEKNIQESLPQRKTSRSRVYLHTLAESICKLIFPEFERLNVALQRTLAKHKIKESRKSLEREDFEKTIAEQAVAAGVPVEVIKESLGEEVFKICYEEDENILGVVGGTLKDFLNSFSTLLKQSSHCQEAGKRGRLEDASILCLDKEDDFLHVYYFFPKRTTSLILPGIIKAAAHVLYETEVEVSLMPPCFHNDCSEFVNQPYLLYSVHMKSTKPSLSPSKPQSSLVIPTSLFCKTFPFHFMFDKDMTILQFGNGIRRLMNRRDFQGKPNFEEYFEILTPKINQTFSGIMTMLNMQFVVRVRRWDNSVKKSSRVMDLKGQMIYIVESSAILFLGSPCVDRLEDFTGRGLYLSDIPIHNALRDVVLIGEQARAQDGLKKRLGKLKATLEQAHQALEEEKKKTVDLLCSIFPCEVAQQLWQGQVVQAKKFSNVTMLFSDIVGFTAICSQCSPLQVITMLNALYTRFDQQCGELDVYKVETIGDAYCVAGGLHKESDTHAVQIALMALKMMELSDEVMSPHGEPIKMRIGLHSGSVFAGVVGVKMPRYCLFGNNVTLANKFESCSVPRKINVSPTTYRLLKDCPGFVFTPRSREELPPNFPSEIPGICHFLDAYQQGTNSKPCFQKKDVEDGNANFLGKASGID
Assay: sGC-HEK-cGMP assay
Assay type: cell-based
Conditions: HEK293 cells, 10 min incubation, intracellular cGMP by LC/MS; for Increase in cGMP Concentration Tested at 10 μM in HEK Assay: test compound 10 μM; for Increase in cGMP Concentration Tested at 30 μM in HEK Assay: test compound 30 μM
Description: Human embryonic kidney cells (HEK293), endogenously expressing soluble guanylate cyclase (sGC), were used to evaluate the activity of test compounds. Compounds stimulating the sGC receptor should cause an increase in the intracellular concentration of cGMP. […] Cells were then incubated for 15 minutes at 37° C. with 0.5 mM 3-isobutyl-1-methylxanthine (2004). Test article was then added to the assay mixture (2 μL) and incubated at 37° C. for 10 minutes. After the 10 minute incubation, the assay mixture was aspirated and 0.1M HCl (2004) was added to the cells. The plate was incubated at 4° C. for 30 minutes in the 0.1M HCl to stop the reaction and lyse the cells. The plates were then centrifuged at 1,200 g for 5 minutes at room temperature. Supernatants were collected and transferred to a new flat bottom 96 well plate for analysis. Vehicle controls were carried out using DMSO (1%). A known sGC stimulator, BAY 41-2272, was used as the positive control.
Samples were diluted with an equal volume of 1 M Ammonium Acetate (pH 7) to neutralize samples for better chromatography. A 2×cGMP standard curve was prepared in 0.1 M HCl and then diluted with an equal volume of 1 M Ammonium Acetate, with the following final concentrations in nM: 1024, 512, 256, 128, 64, 32, 16, 8, 4, 2, 1.
cGMP concentrations were determined from each sample using the LC/MS conditions (Table 2 below) and calculated standard curve. EC50 values were calculated from concentration-response curves generated with GraphPad Prism Software.

Row | SMILES | Increase in cGMP Concentration Tested at 10 μM in HEK Assay | Increase in cGMP Concentration Tested at 30 μM in HEK Assay
1 | Fc1ccccc1Cn1nc(-c2ncccn2)c2c1CCC2 [Compound I-2] | C (C represents an increase ranging from 10 fold to less than 20 fold) | D (D represents an increase ranging from 20 fold to less than 50 fold)
2 | Nc1nc(N)nc(-c2nn(Cc3ccccc3F)c3c2CCC3)n1 [Compound I-4] | A (A represents no increase or an increase ranging from more than 0 fold to less than 5 fold) | A (A represents no increase or an increase ranging from more than 0 fold to less than 5 fold)
3 | COc1cccc(Cn2nc(-c3ncccn3)c3c2CCCC3)c1 [Compound I-5] | B (B represents an increase ranging from 5 fold to less than 10 fold) | C (C represents an increase ranging from 10 fold to less than 20 fold)
4 | Fc1ccc(Cn2nc(-c3ncccn3)c3c2CCCC3)cc1 [Compound I-6] | A (A represents no increase or an increase ranging from more than 0 fold to less than 5 fold) | A (A represents no increase or an increase ranging from more than 0 fold to less than 5 fold)
5 | Fc1cccc(Cn2nc(-c3ncccn3)c3c2CCCC3)c1 [Compound I-7] | C (C represents an increase ranging from 10 fold to less than 20 fold) | D (D represents an increase ranging from 20 fold to less than 50 fold)
6 | N#Cc1ccccc1Cn1nc(-c2ncccn2)c2c1CCCC2 [Compound I-8] | C (C represents an increase ranging from 10 fold to less than 20 fold) | D (D represents an increase ranging from 20 fold to less than 50 fold)
7 | N#Cc1cccc(Cn2nc(-c3ncccn3)c3c2CCCC3)c1 [Compound I-9] | A (A represents no increase or an increase ranging from more than 0 fold to less than 5 fold) | B (B represents an increase ranging from 5 fold to less than 10 fold)
8 | c1cnc(-c2nn(Cc3cccc4ccsc34)c3c2CCCC3)nc1 [Compound I-10] | B (B represents an increase ranging from 5 fold to less than 10 fold) | B (B represents an increase ranging from 5 fold to less than 10 fold)
9 | c1cnc(-c2nn(Cc3cccc4ccccc34)c3c2CCCC3)nc1 [Compound I-11] | A (A represents no increase or an increase ranging from more than 0 fold to less than 5 fold) | A (A represents no increase or an increase ranging from more than 0 fold to less than 5 fold)
10 | Nc1nc(-c2nn(Cc3ccccc3F)c3c2CCCC3)nc(N)c1N [Compound I-12] | A (A represents no increase or an increase ranging from more than 0 fold to less than 5 fold) | A (A represents no increase or an increase ranging from more than 0 fold to less than 5 fold)
11 | COC(=O)Nc1c(N)nc(-c2nn(Cc3ccccc3F)c3c2CCCC3)nc1N [Compound I-13] | A (A represents no increase or an increase ranging from more than 0 fold to less than 5 fold) | A (A represents no increase or an increase ranging from more than 0 fold to less than 5 fold)
12 | Fc1ccccc1Cn1nc(-c2ncccn2)c2c1CCSC2 [Compound I-15] | C (C represents an increase ranging from 10 fold to less than 20 fold) | C (C represents an increase ranging from 10 fold to less than 20 fold)
13 | CC1(C)CCCc2c(-c3ncccn3)nn(Cc3ccccc3F)c21 [Compound I-16] | A (A represents no increase or an increase ranging from more than 0 fold to less than 5 fold) | B (B represents an increase ranging from 5 fold to less than 10 fold)
14 | CC1(C)CCc2c(c(-c3ncccn3)nn2Cc2ccccc2F)C1 [Compound I-17] | B (B represents an increase ranging from 5 fold to less than 10 fold) | A (A represents no increase or an increase ranging from more than 0 fold to less than 5 fold)
15 | Fc1ccccc1Cn1nc(-c2ncccn2)c2c1CCCCC2 [Compound I-18] | B (B represents an increase ranging from 5 fold to less than 10 fold) | C (C represents an increase ranging from 10 fold to less than 20 fold)
16 | O=S1(=O)CCc2c(c(-c3ncccn3)nn2Cc2ccccc2F)C1 [Compound I-19] | A (A represents no increase or an increase ranging from more than 0 fold to less than 5 fold) | A (A represents no increase or an increase ranging from more than 0 fold to less than 5 fold)
17 | CC1(C)CC(=O)c2c(-c3ncccn3)nn(Cc3ccccc3F)c2C1 [Compound I-20] | A (A represents no increase or an increase ranging from more than 0 fold to less than 5 fold) | A (A represents no increase or an increase ranging from more than 0 fold to less than 5 fold)
18 | O=C1CCCc2c1c(-c1ncccn1)nn2Cc1ccccc1F [Compound I-21] | A (A represents no increase or an increase ranging from more than 0 fold to less than 5 fold) | A (A represents no increase or an increase ranging from more than 0 fold to less than 5 fold)
19 | COC(=O)N(Cc1ccccc1F)c1c(N)nc(-c2nn(Cc3ccccc3F)c3c2CCCC3)nc1N [Compound I-23] | C (C represents an increase ranging from 10 fold to less than 20 fold) | C (C represents an increase ranging from 10 fold to less than 20 fold)
20 | COC(=O)N(Cc1ccccc1F)c1c(N)nc(-c2nn(Cc3ccccc3F)c3c2CCCC3)nc1NCc1ccccc1F [Compound I-24] | A (A represents no increase or an increase ranging from more than 0 fold to less than 5 fold) | A (A represents no increase or an increase ranging from more than 0 fold to less than 5 fold)
21 | Nc1nc(-c2nn(Cc3ccccc3F)c3c2CCCC3)nc(N)c1NC(=O)OCCCl [Compound I-25] | A (A represents no increase or an increase ranging from more than 0 fold to less than 5 fold) | B (B represents an increase ranging from 5 fold to less than 10 fold)
22 | Nc1nc(-c2nn(Cc3ccccc3F)c3c2CCCC3)nc(N)c1N1CCOC1=O [Compound I-26] | A (A represents no increase or an increase ranging from more than 0 fold to less than 5 fold) | B (B represents an increase ranging from 5 fold to less than 10 fold)
